In patent US11167015B2, “Arginine and its use as a T cell modulator” (INSTITUTE FOR RESEARCH IN BIOMEDICINE, priority 2016, dated 2021):

Tests used:
human naïve CD4+ T cells [1] = assay: T cell proliferation (CellTrace Violet dilution); type: cell-based
Protocol: FIG. 10. […] (A) Kinetics of T cell proliferation. Human naïve CD4+ T cells were labeled with CellTraceViolet (CTV) and activated in Ctrl medium or in L-Arg medium or in medium supplemented with 3 mM D-arginine or 3 mM L-arginine together with 3 mM L-lysine. Cell divisions were monitored at 48 h and 72 h by flow cytometry. (B) CTV-labeled CD4+ T cells were activated in normal medium or L-Arg medium and the dilution of CTV was measured over time by flow cytometry. n=5 from two donors. (C) 3H-L-arginine uptake by 3 day-activated CD4+ T cells during a 15 minutes pulse. Where indicated, 3 mM L-arginine, D-arginine or L-lysine was added to the culture medium as a competitive uptake inhibitor. n=7 for control, n=9 for L-Arg, n=5 for D-Arg, and n=9 for L-Lys. Bars represent the s.e.m.

human naïve CD4+ T cells [2] = assay: Cytokine analysis (IFN-gamma); type: cell-based
Protocol: 10^5 naïve T cells were stimulated with plate bound anti-CD3 (5 μg ml^−1) and anti-CD28 (1 μg ml^−1) in the presence of IL-12 (10 ng/ml, R&D Systems) to polarize cells towards a Th1 phenotype. After 48 h, cells were transferred into U-bottom plates and IL-2 (10 ng/ml, R&D Systems) was added. Three days later, supernatants were collected and interferon-γ was quantified using FlowCytomix assays (eBioscience). Samples were analyzed on a BD LSR Fortessa FACS instrument and quantification was performed with the FlowCytomix Pro 3.0 software. For re-stimulation, cells were cultured for 5 h in the presence of 0.2 μM phorbol 12-myristate 13-acetate (PMA) and 1 μg/ml ionomycin (both from Sigma).

activated (96 h) T cells = assay: Measurements of oxygen consumption rate (Seahorse); type: cell-based, human; conditions: medium supplemented with 3 mM L-arginine, 96 h activated
Protocol: Measurements were performed using a Seahorse XF-24 extracellular flux analyzer (Seahorse Bioscience). Naïve CD4^+ T cells were sorted and activated with plate-bound CD3 and CD28 antibodies in complete medium or medium supplemented with 3 mM L-arginine. Four days later (in the morning), cells were pooled, carefully count and plated (7×10^5 cells/well) in serum-free unbuffered RPMI-1640 medium (Sigma) onto Seahorse cell plates coated with Cell-Tak (BD Bioscience). The serum-free unbuffered medium was not supplemented with L-arginine. Oligomycin (1.4 μM, Sigma), Carbonyl cyanide-4-(trifluoromethoxy)phenylhydrazone (FCCP, 0.6 μM, Sigma) and antimycin (1.4 μM, Sigma) were injected.

N=C(N)NCCC[C@H](N)C(=O)O [L-arginine]
onset of proliferation (human naïve CD4+ T cells [1]; 3 mM in medium): slightly delayed onset | doubling rates once proliferation started (human naïve CD4+ T cells [1]; L-arginine-supplemented medium): comparable to controls | IFN-gamma secretion (human naïve CD4+ T cells [2]; L-arginine-supplemented medium, 10 ng/ml IL-12, supernatants after 5 days): much less | IFN-gamma secretion after re-activation (human naïve CD4+ T cells [2]; re-activation for 5 h with PMA/Ionomycin): comparable amounts | mitochondrial spare respiratory capacity (SRC) (activated (96 h) T cells): augmented | oxygen consumption increase (activated (96 h) T cells): 1.7 fold
